Data as given in a compilation of properties of binary mixtures (doi:10.1016/j.molliq.2021.115373).

Experiment: xn = mol fraction of the nth substance listed
Conditions: 101 kPa

CC[N+](C)(CC)CCOC.O=S(=O)([N-]S(=O)(=O)C(F)(F)F)C(F)(F)F + O=C1CCCO1
Conditions | electrical conductivity [S/m] | viscosity [mPa·s]
288.15 K, x1 = 0.3003 | 0.818 | 14.42
288.15 K, x1 = 0.4007 | 0.638 | 21.86
288.15 K, x1 = 0.6999 | 0.342 | 87.8
288.15 K, x1 = 0.8001 | 0.271 | 118.2
288.15 K, x1 = 0.9003 | 0.189 | 159.3
288.15 K, x1 = 1 | 0.147 | 225
293.15 K, x1 = 0.2006 | 1.16 | 7.44
293.15 K, x1 = 0.4007 | 0.737 | 18.34
293.15 K, x1 = 0.6002 | 0.508 | 49.4
293.15 K, x1 = 0.6999 | 0.429 | 67.7
293.15 K, x1 = 0.8001 | 0.336 | 90
293.15 K, x1 = 0.9003 | 0.246 | 118.6
298.15 K, x1 = 0.2006 | 1.29 | 6.32
298.15 K, x1 = 0.3003 | 1.03 | 10.43
298.15 K, x1 = 0.4998 | 0.688 | 24.17
298.15 K, x1 = 0.6002 | 0.595 | 37.96
298.15 K, x1 = 0.6999 | 0.504 | 51.5
298.15 K, x1 = 0.8001 | 0.413 | 68.2
298.15 K, x1 = 0.9003 | 0.31 | 88.5
298.15 K, x1 = 1 | 0.24 | 119.2
303.15 K, x1 = 0.1004 | 1.41 | 2.972
303.15 K, x1 = 0.2006 | 1.45 | 5.4
303.15 K, x1 = 0.3003 | 1.16 | 8.87
303.15 K, x1 = 0.4007 | 0.956 | 12.54
303.15 K, x1 = 0.4998 | 0.791 | 19.36
303.15 K, x1 = 0.6002 | 0.688 | 29.46
303.15 K, x1 = 0.8001 | 0.488 | 51.5
303.15 K, x1 = 0.9003 | 0.382 | 67.4
308.15 K, x1 = 0.1004 | 1.52 | 2.401
308.15 K, x1 = 0.2006 | 1.59 | 4.634
308.15 K, x1 = 0.6002 | 0.786 | 23.31
308.15 K, x1 = 0.6999 | 0.693 | 30.64
308.15 K, x1 = 0.8001 | 0.576 | 39.71
308.15 K, x1 = 1 | 0.365 | 67.7
313.15 K, x1 = 0.3003 | 1.43 | 6.47
313.15 K, x1 = 0.4007 | 1.21 | 8.94
313.15 K, x1 = 0.4998 | 1.02 | 12.56
313.15 K, x1 = 0.6002 | 0.898 | 18.36
313.15 K, x1 = 0.6999 | 0.805 | 24.16
313.15 K, x1 = 0.9003 | 0.545 | 39.51
313.15 K, x1 = 1 | 0.44 | 53
318.15 K, x1 = 0.1004 | 1.77 | 1.55
318.15 K, x1 = 0.2006 | 1.92 | 3.357
318.15 K, x1 = 0.3003 | 1.57 | 5.5
318.15 K, x1 = 0.4007 | 1.35 | 7.5
318.15 K, x1 = 0.4998 | 1.15 | 10.47
318.15 K, x1 = 0.6999 | 0.916 | 19.03
318.15 K, x1 = 0.8001 | 0.782 | 24.04
318.15 K, x1 = 0.9003 | 0.645 | 30.79
318.15 K, x1 = 1 | 0.521 | 40.98
323.15 K, x1 = 0.1004 | 1.89 | 1.264
323.15 K, x1 = 0.3003 | 1.72 | 4.76
323.15 K, x1 = 0.6999 | 1.03 | 14.91
323.15 K, x1 = 0.8001 | 0.888 | 18.65
323.15 K, x1 = 0.9003 | 0.739 | 24.72
323.15 K, x1 = 1 | 0.609 | 33.06
328.15 K, x1 = 0.1004 | 2.02 | 1.025
328.15 K, x1 = 0.2006 | 2.22 | 2.567
328.15 K, x1 = 0.3003 | 1.88 | 4.154
328.15 K, x1 = 0.4007 | 1.64 | 5.51
328.15 K, x1 = 0.4998 | 1.44 | 7.25
328.15 K, x1 = 0.6999 | 1.15 | 11.99
328.15 K, x1 = 0.8001 | 1 | 14.94
328.15 K, x1 = 0.9003 | 0.844 | 19.43
333.15 K, x1 = 0.1004 | 2.15 | 0.838
333.15 K, x1 = 0.2006 | 2.38 | 2.237
333.15 K, x1 = 0.3003 | 2.07 | 3.578
333.15 K, x1 = 0.4998 | 1.59 | 6.07
333.15 K, x1 = 0.6002 | 1.42 | 7.65
333.15 K, x1 = 0.6999 | 1.29 | 9.72
333.15 K, x1 = 0.8001 | 1.12 | 11.69
333.15 K, x1 = 0.9003 | 0.956 | 16.5
338.15 K, x1 = 0.1004 | 2.27 | 0.686
338.15 K, x1 = 0.2006 | 2.56 | 1.957
338.15 K, x1 = 0.3003 | 2.24 | 3.117
338.15 K, x1 = 0.4007 | 1.99 | 4.059
338.15 K, x1 = 0.4998 | 1.75 | 5.21
338.15 K, x1 = 0.6002 | 1.56 | 6.3
338.15 K, x1 = 0.6999 | 1.41 | 7.76
338.15 K, x1 = 0.8001 | 1.24 | 9.36
338.15 K, x1 = 0.9003 | 1.07 | 13.36
338.15 K, x1 = 1 | 0.935 | 17.49
343.15 K, x1 = 0.1004 | 2.41 | 0.558
343.15 K, x1 = 0.2006 | 2.74 | 1.718
343.15 K, x1 = 0.4007 | 2.17 | 3.53
343.15 K, x1 = 0.6002 | 1.72 | 4.94
343.15 K, x1 = 0.6999 | 1.54 | 6.16
343.15 K, x1 = 0.8001 | 1.37 | 7.56
343.15 K, x1 = 0.9003 | 1.2 | 10.95
343.15 K, x1 = 1 | 1.05 | 14.91
348.15 K, x1 = 0.1004 | 2.56 | 0.458
348.15 K, x1 = 0.2006 | 2.91 | 1.517
348.15 K, x1 = 0.3003 | 2.63 | 2.346
348.15 K, x1 = 0.4998 | 2.12 | 3.777
348.15 K, x1 = 0.6002 | 1.88 | 4.265
348.15 K, x1 = 0.8001 | 1.5 | 6.13
348.15 K, x1 = 1 | 1.18 | 12.3
353.15 K, x1 = 0.1004 | 2.7 | 0.392
353.15 K, x1 = 0.4007 | 2.55 | 2.74
353.15 K, x1 = 0.4998 | 2.3 | 3.376
353.15 K, x1 = 0.6999 | 1.84 | 4.04
353.15 K, x1 = 0.8001 | 1.64 | 4.81
353.15 K, x1 = 1 | 1.31 | 10.28
